Results: patent US12679827B2, “Pyrimidine compounds and their pharmaceutical uses” (National Health Research Institutes, priority 2020, dated 2026)
Read-outs that look alike come from different tables or passages of the source.

Columns and labels:
SK-N-BE(2) = experiment: Proliferation inhibition of various cancer cells (PrestoBlue), SK-N-BE(2); assay type: cell-based; conditions: Homo sapiens, SKNBE2; Neuroblastoma; 72 hours
Method: (§1) The efficacies of compounds 41 and 86 of Formula (I) in inhibiting proliferation of eleven types of cancer cells were determined using PrestoBlue™ Cell Viability Reagent (ThermoFisher Scientific, USA). The eleven types of cancer cells are small cell lung cancer, non-small cell lung cancer, liver cancer, pancreatic cancer, breast cancer, colon cancer, prostate cancer, neuroblastoma, brain cancer, leukemia, and cholangiocarcinoma.
(§2) More specifically, […], i.e., NCI-H82 (ATCC® HTB-175), NCI-H446 (ATCC® HTB-171), NCI-H69 (ATCC® HTB-119), NCI-H146 (ATCC® HTB-173), NCI-H1792 (ATCC® CRL-5895), NCI-H1299 (ATCC® CRL-5803), SNU-398 (ATCC® CRL-2233), PSN-1 (ATCC® CRL-3211), MIA PaCa-2 (ATCC® CRL-1420), MDA-MB-231 (ATCC® HTB-26), LOVO (ATCC® CCL-229), COLO 205 (ATCC® CCL-222), PC-3 (ATCC® CRL-1435), SK-N-BE(2) (ATCC® CRL-2271), D341 Med (ATCC® HTB-187), K562 (ATCC® CCL-243), MOLM-13 (DSMZ-German Collection of Microorganisms and Cell Cultures GmbH, ACC No. 554), and SNU-478 (KCLB 00478), were seeded at a density of 4000-10000 cells per well in 96-well plates for 24 hours. The cancer cells were then treated with each compound at various concentrations (0-10 μM), followed by incubation for another 72 hours. IC50 values were computed based on duplicated 8-point titration.

NCI-H446 = experiment: Proliferation inhibition of various cancer cells (PrestoBlue), NCI-H446; assay type: cell-based; conditions: Homo sapiens, Small cell lung cancer, 72 hours
Method: as §1, §2

NCI-H146 = experiment: Proliferation inhibition of various cancer cells (PrestoBlue), NCI-H146; assay type: cell-based; conditions: Homo sapiens, Small cell lung cancer, 72 hours
Method: as §1, §2

cMYC = experiment: Western blot, cMYC protein level in NCI-H82 cells; assay type: cell-based, human; conditions: NCI-H82 (SCLC) cells; 50, 200, 500, 1000 nM; 24 hours; FIG. 1
Method: Compounds 41 and 86, both covered by Formula (I), were tested to assess their efficacies in reducing the level of cMYC oncoprotein in a human small-cell-lung-cancer (“SCLC”) cell line NCI-H82 (ATCC® HTB-175, USA) and the level of MYCN oncoprotein in a human neuroblastoma cell line SK-N-BE(2) (ATCC® CRL-2271, USA) as follows.
NCI-H82 was maintained in RPMI1640 medium (ThermoFisher Scientific, USA) supplemented with 10% fetal bovine serum (FBS, HyClone, USA) and antibiotics. SK-N-BE(2) was maintained in Minimum Essential Medium (MEM, ThermoFisher Scientific, USA) supplemented with 10% FBS (HyClone, USA) and antibiotics. The cancer cells from each cell line were treated with each of compounds 41 and 86 at 4 different compound concentrations, i.e., 50 nM, 200 nM, 500 nM, and 1000 nM. After 24 hours, each cancer cell solution was washed with 1× phosphate buffered saline (PBS), lysed in 1× Laemmli protein sample buffer, and boiled at 100° C. for 10 minutes. Each lysate was separated by SDS-PAGE, transferred to polyvinylidene fluoride (PVDF, Millipore, USA) membrane, and blotted with antibodies. Primary antibodies used for Western blotting were cMYC (Cell Signaling, Cat No. 5605S), MYCN (Cell Signaling, 9405S), PARP-1 (Abcam, ab32378), and GAPDH (Genetex, GTX100118). […]

PSN-1 = experiment: Proliferation inhibition of various cancer cells (PrestoBlue), PSN-1; assay type: cell-based; conditions: Homo sapiens, PSN1; Pancreatic cancer; 72 hours
Method: as §1, §2

MDA-MB-231 = experiment: Proliferation inhibition of various cancer cells (PrestoBlue), MDA-MB-231; assay type: cell-based; conditions: Homo sapiens, Breast cancer, 72 hours
Method: as §1, §2

SNU-478 = experiment: Proliferation inhibition of various cancer cells (PrestoBlue), SNU-478; assay type: cell-based; conditions: Cholangiocarcinoma; 72 hours
Method: as §1, §2

MIA PaCa-2 = experiment: Proliferation inhibition of various cancer cells (PrestoBlue), MIA PaCa-2; assay type: cell-based; conditions: Homo sapiens, Pancreatic cancer, 72 hours
Method: as §1, §2

NCI-H1792 = experiment: Proliferation inhibition of various cancer cells (PrestoBlue), NCI-H1792; assay type: cell-based; conditions: Homo sapiens, Non-small cell lung cancer, 72 hours
Method: as §1, §2

NCI-H82 = experiment: Small-cell-lung cancer cell proliferation inhibition assay (PrestoBlue), NCI-H82; assay type: cell-based; conditions: Homo sapiens, cMYC amplified SCLC cells, 72 hours
Method: Small cell lung cancer cells NCI-H82 (ATCC HTB-175, cMYC amplified), NCI-H446 (ATCC® HTB-171, cMYC amplified), and NCI-H69 (ATCC® HTB-119, MYCN amplified) were seeded at the density of 5000-10000 cells per well in 96-well plates. After 24 hours, the cancer cells were treated with each compound at various concentrations (0-10 μM) and then incubated for another 72 hours. IC50 values were computed based on duplicated 8-point titration.

PC-3 = experiment: Proliferation inhibition of various cancer cells (PrestoBlue), PC-3; assay type: cell-based; conditions: Homo sapiens, Prostate cancer, 72 hours
Method: as §1, §2

SNU-398 = experiment: Proliferation inhibition of various cancer cells (PrestoBlue), SNU-398; assay type: cell-based; conditions: Homo sapiens, Liver cancer, 72 hours
Method: as §1, §2

D341 Med = experiment: Proliferation inhibition of various cancer cells (PrestoBlue), D341 Med; assay type: cell-based; conditions: Brain cancer, 72 hours
Method: as §1, §2

[1] = test system: eleven types of cancer cells; experiment: Proliferation inhibition of eleven types of cancer cells (summary by cancer type); assay type: cell-based
Method: as §1, §2

LOVO = experiment: Proliferation inhibition of various cancer cells (PrestoBlue), LOVO; assay type: cell-based; conditions: Homo sapiens, Colon cancer, 72 hours
Method: as §1, §2

MOLM-13 = experiment: Proliferation inhibition of various cancer cells (PrestoBlue), MOLM-13; assay type: cell-based; conditions: Homo sapiens, Leukemia, 72 hours
Method: as §1, §2

[2] = all eleven cancer types, read-out: IC50 in inhibiting proliferation of all the eleven types of cancer cells
[3] = breast cancer, read-out: IC50 in inhibiting proliferation of cells
[4] = cholangiocarcinoma, read-out: IC50 in inhibiting proliferation of cells
[5] = non-small cell lung cancer, pancreatic cancer, and colon cancer, read-out: IC50 in inhibiting proliferation of cells
[6] = prostate cancer, read-out: IC50 in inhibiting proliferation of cells
[7] = small-cell-lung cancer, liver cancer, neuroblastoma, brain cancer, and leukemia, read-out: IC50 in inhibiting proliferation of cells

| SMILES | IC50 (SK-N-BE(2)) [nM] | IC50 (NCI-H446) [nM] | IC50 (NCI-H146) [nM] | protein level of cMYC (cMYC) | IC50 (PSN-1) [nM] | IC50 (MDA-MB-231) [nM] | IC50 (SNU-478) [nM] | IC50 (MIA PaCa-2) [nM] | IC50 (NCI-H1792) [nM] | IC50 (NCI-H82) [nM] | IC50 (PC-3) [nM] | IC50 (SNU-398) [nM] | IC50 (D341 Med) [nM] | IC50 [1, 2] [nM] | IC50 [1, 3] [nM] | IC50 [1, 4] [nM] | IC50 [1, 5] [nM] | IC50 [1, 6] [nM] | IC50 [1, 7] [nM] | IC50 (LOVO) [nM] | other results |
| --- | --- | --- | --- | --- | --- | --- | --- | --- | --- | --- | --- | --- | --- | --- | --- | --- | --- | --- | --- | --- | --- |
| CCN1CCN(c2cc(Nc3cc(C)[nH]n3)nc(NC3CCN(C(=O)c4cccc(Cl)c4F)CC3)n2)CC1 [Compound 86] | < 200 | < 200 | < 10000 | greatly reduced | < 2000 | < 300 | < 2000 | < 1000 | < 2000 | < 1000 | < 10000 | < 200 | < 300 | < 10000 | < 300 | < 2000 | < 1000 | < 10000 | < 200 | < 10000 | IC50 (MOLM-13): < 200 nM |
| CCN1CCN(c2cc(Nc3cc(C)[nH]n3)nc(N[C@H]3CCN(C(=O)c4ccc(Cl)cc4F)C3)n2)CC1 [Compound 41] | < 200 | < 200 | < 2000 | greatly reduced | < 2000 | < 300 | < 2000 | < 1000 | < 2000 | < 1000 | < 10000 | < 200 | < 200 | < 10000 | < 300 | < 2000 | < 1000 | < 10000 | < 200 | < 10000 | IC50 (MOLM-13): < 200 nM |
